Some test systems named below: CAKI-1; UO-31; UACC-62; M14; MCF7; MDA-MB-231; NCI/ADR-RES; OVCAR-8; T47D; SR; 786-0; SF-539; SK-MEL-28; HCT-116; Malme-3M; EKVX; SK-MEL-2; MDA-N; A549; LOX IMVI.
What all share (assay): growth of human tumour cells (NCI), 48 h

Molecules are shown by their SMILES.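 Method: 48-hour compound exposure of cells in 96-well plates, five concentrations, linear interpolation of endpoints. Here, GI50 denotes the concentration required for 50% inhibition of growth.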 Active and inactive are the calls of the source. No stated cut-off is given here; in the data, active = GI50 up to about 1.1 µM and inactive = higher.

As to `COc1ccc(/C=C/C(=O)c2ccc(Br)cc2)cc1`, the GI50 was > 100 µM (inactive) in the assay on CAKI-1; 78.7 µM (inactive) in the assay with UO-31; > 100 µM (inactive) with UACC-62; > 100 µM (inactive) in the assay with M14; 85.7 µM (inactive) in the assay on MCF7; > 100 µM (inactive) in the assay on MDA-MB-231. Also, the GI50 with NCI/ADR-RES was 52 µM (inactive); in the assay on OVCAR-8, > 100 µM (inactive); with T47D, 42.4 µM (inactive); with SR it was 84.1 µM (inactive); in the assay with 786-0, > 100 µM (inactive); with SF-539, > 100 µM (inactive). For the same molecule, the GI50 in the assay with SK-MEL-28 is > 100 µM (inactive); in the assay on HCT-116 it was 80.4 µM (inactive); in the assay on Malme-3M, > 100 µM (inactive); in the assay on EKVX, > 100 µM (inactive); in the assay with SK-MEL-2, > 100 µM (inactive); in the assay on MDA-N it was > 100 µM (inactive). For the same molecule, the GI50 with A549 was > 100 µM (inactive).

For `O=C1/C(=C/c2ccc3c(c2)CCC3)Cc2cc3c(cc21)CCC3`, the GI50 in the assay with UO-31 is > 100 µM (inactive); with UACC-62 it was > 100 µM (inactive); in the assay with M14, > 100 µM (inactive); in the assay on MCF7, > 100 µM (inactive); in the assay on MDA-MB-231, 76.9 µM (inactive); in the assay with NCI/ADR-RES, > 100 µM (inactive). Also, the GI50 with OVCAR-8 was > 100 µM (inactive); with T47D it was 3.53 µM (inactive); in the assay on SR it was > 100 µM (inactive); in the assay with SF-539, > 100 µM (inactive); in the assay on SK-MEL-28, > 100 µM (inactive); with HCT-116, > 100 µM (inactive). Further, the GI50 with Malme-3M, in the assay with EKVX, in the assay on SK-MEL-2, in the assay on LOX IMVI, with MDA-N and in the assay with A549 was > 100 µM (inactive) each time.

`C/C(=N\N=C(N)N)c1c(C(=O)OCCCCCCOC(=O)c2nc3sccn3c2/C(C)=N/N=C(N)N)nc2sccn12`: the GI50 in the assay with CAKI-1 is > 100 µM (inactive); with UO-31 it was 69.5 µM (inactive); with UACC-62 it was > 100 µM (inactive); in the assay with M14, > 100 µM (inactive); in the assay on MCF7, 47.4 µM (inactive); with MDA-MB-231 it was > 100 µM (inactive). Further, the GI50 in the assay on NCI/ADR-RES is > 100 µM (inactive); in the assay with OVCAR-8, 42.9 µM (inactive); in the assay on T47D, 16.2 µM (inactive); in the assay with SR it was 18.3 µM (inactive); with 786-0, 41.9 µM (inactive); in the assay with SK-MEL-28, > 100 µM (inactive). Further, the GI50 was > 100 µM (inactive) in the assay with HCT-116; 43.4 µM (inactive) in the assay with Malme-3M; > 100 µM (inactive) in the assay with EKVX; > 100 µM (inactive) in the assay with SK-MEL-2; 98.2 µM (inactive) with LOX IMVI; > 100 µM (inactive) in the assay on MDA-N. The GI50 in the assay with A549 was > 100 µM (inactive).

Consider `Cn1c(NN)nc(-c2ccc([N+](=O)[O-])cc2)c(C#N)c1=O`, for which the GI50 with CAKI-1 is 26.2 µM (inactive); in the assay on UO-31, 16.3 µM (inactive); in the assay on UACC-62, 15.6 µM (inactive); with M14, 12.5 µM (inactive); in the assay on MCF7 it was 16.6 µM (inactive); with MDA-MB-231 it was 12.7 µM (inactive). In addition, the GI50 with NCI/ADR-RES was 31 µM (inactive); in the assay on OVCAR-8 it was 19.2 µM (inactive); in the assay with T47D it was 15.8 µM (inactive); in the assay on SR, 18.7 µM (inactive); with 786-0 it was 14.2 µM (inactive); in the assay on SK-MEL-28 it was 12.5 µM (inactive). For the same molecule, the GI50 in the assay on HCT-116 was 12.8 µM (inactive); in the assay with Malme-3M, 16.1 µM (inactive); in the assay with EKVX it was 15.8 µM (inactive); with SK-MEL-2, 22.2 µM (inactive); with LOX IMVI, 17.1 µM (inactive); with MDA-N, 12.4 µM (inactive). Also, the GI50 with A549 is 19.8 µM (inactive).

Consider `Cc1ccc2c(sc(-c3ccc4c(c3)sc(-c3ccc(N(C)C)cc3)[n+]4C)[n+]2C)c1S(=O)(=O)O.Cc1ccc2c(sc(-c3ccc4c(c3)sc(-c3ccc5c(c3)sc(-c3ccc(N(C)C)cc3)[n+]5C)[n+]4C)[n+]2C)c1S(=O)(=O)O`, for which the GI50 in the assay on CAKI-1 was 10 µM (inactive); with UO-31, > 100 µM (inactive); in the assay with UACC-62, > 100 µM (inactive); in the assay on M14 it was > 100 µM (inactive); with MCF7 it was > 100 µM (inactive); in the assay with MDA-MB-231 it was 22 µM (inactive). The GI50 was > 100 µM (inactive) in the assay with NCI/ADR-RES; > 100 µM (inactive) with OVCAR-8; 85.9 µM (inactive) with T47D; 1 µM (active) in the assay on SR; > 100 µM (inactive) in the assay with 786-0; > 100 µM (inactive) in the assay with SF-539. The GI50 in the assay on SK-MEL-28 was > 100 µM (inactive); with HCT-116 it was > 100 µM (inactive); in the assay on EKVX it was 76 µM (inactive); with SK-MEL-2, > 100 µM (inactive); with LOX IMVI, > 100 µM (inactive); in the assay with MDA-N it was > 100 µM (inactive). For the same molecule, in the assay on A549, the GI50 is > 100 µM (inactive).

`Cc1cn([C@@H]2O[C@H](CO[Si](C)(C)C(C)(C)C)[C@]3(O[C@H]3C(=O)NN)[C@H]2O[Si](C)(C)C(C)(C)C)c(=O)[nH]c1=O`: the GI50 was 11.6 µM (inactive) with CAKI-1; 14.2 µM (inactive) in the assay on UO-31; 10.6 µM (inactive) in the assay on UACC-62; 7.18 µM (inactive) in the assay with M14; 4.26 µM (inactive) with MCF7; 3.57 µM (inactive) in the assay with MDA-MB-231. The GI50 in the assay with NCI/ADR-RES was 15.6 µM (inactive); in the assay on OVCAR-8, 6.62 µM (inactive); with T47D it was 2.36 µM (inactive); in the assay on 786-0, 4.06 µM (inactive); in the assay on SF-539, 4.75 µM (inactive); in the assay on SK-MEL-28 it was 10.3 µM (inactive). Moreover, the GI50 in the assay on HCT-116 is 4.08 µM (inactive); in the assay on Malme-3M, 3.39 µM (inactive); with EKVX, 8.61 µM (inactive); in the assay on SK-MEL-2, 6.37 µM (inactive); in the assay with LOX IMVI, 3.33 µM (inactive); in the assay on MDA-N, 5.78 µM (inactive). Further, the GI50 in the assay on A549 is 6.03 µM (inactive).

On to `CCOC(=O)c1csc(NC(=O)CN2CCN(C)CC2)n1`, for which the GI50 in the assay on CAKI-1, in the assay on UO-31, with UACC-62, in the assay with M14, with MCF7 and with MDA-MB-231 was > 100 µM (inactive) each time. In addition, the GI50 in the assay with NCI/ADR-RES, in the assay on OVCAR-8, in the assay with T47D, in the assay with SR, in the assay with SK-MEL-28 and in the assay on Malme-3M was > 100 µM (inactive) each time. Besides, the GI50 in the assay on EKVX, with SK-MEL-2, in the assay on LOX IMVI, with MDA-N and in the assay with A549 was > 100 µM (inactive) each time.

For the molecule `CC(NC(=O)c1ccccc1)NC(=O)C(C)C(=O)Nc1ccccc1` (centres undefined), the GI50 in the assay on CAKI-1, in the assay with UO-31, with UACC-62, in the assay on M14, in the assay on MCF7 and in the assay on MDA-MB-231 was > 100 µM (inactive) throughout. Also, the GI50 is > 100 µM (inactive) with NCI/ADR-RES; 94.6 µM (inactive) with OVCAR-8; > 100 µM (inactive) with T47D; > 100 µM (inactive) with SR; > 100 µM (inactive) in the assay on 786-0; > 100 µM (inactive) in the assay with SF-539. The GI50 in the assay with HCT-116, in the assay on Malme-3M, in the assay with EKVX, in the assay with SK-MEL-2, with MDA-N and with A549 was > 100 µM (inactive) throughout.

Take `N#CC(=C1CCCCC1)c1nc2ccccc2o1`: the GI50 is 64.1 µM (inactive) in the assay with CAKI-1; 47.2 µM (inactive) in the assay with UO-31; 68.9 µM (inactive) in the assay with UACC-62; 80.7 µM (inactive) with M14; 53.1 µM (inactive) in the assay with MCF7; > 100 µM (inactive) with MDA-MB-231. For the same molecule, the GI50 with NCI/ADR-RES was 40 µM (inactive); in the assay with OVCAR-8, 47.4 µM (inactive); in the assay with T47D it was 19.4 µM (inactive); in the assay on SR it was 37.9 µM (inactive); with 786-0, > 100 µM (inactive); in the assay with SF-539 it was 31.7 µM (inactive). Also, the GI50 in the assay with SK-MEL-28 was > 100 µM (inactive); in the assay with HCT-116, 55.3 µM (inactive); in the assay with Malme-3M, > 100 µM (inactive); in the assay on EKVX, 34.5 µM (inactive); with SK-MEL-2, > 100 µM (inactive); in the assay with MDA-N it was 74.5 µM (inactive). Besides, the GI50 in the assay with A549 was 51.1 µM (inactive).

`CC(NC(=O)OC(C)(C)C)C(=O)C(N)=O` (centres undefined): the GI50 in the assay with UO-31, with M14, with MCF7, with MDA-MB-231, in the assay with NCI/ADR-RES and with OVCAR-8 was > 100 µM (inactive) in each case. For the same molecule, the GI50 was > 100 µM (inactive) in the assay on T47D; 38.6 µM (inactive) in the assay with SR; > 100 µM (inactive) in the assay with 786-0; > 100 µM (inactive) in the assay on SF-539; > 100 µM (inactive) in the assay on SK-MEL-28; > 100 µM (inactive) with HCT-116. For the same molecule, the GI50 in the assay with EKVX, in the assay with SK-MEL-2, in the assay with LOX IMVI, in the assay with MDA-N and in the assay with A549 was > 100 µM (inactive) in each case.

The record behind these values is ChEMBL document CHEMBL1201862, “PubChem BioAssay data set” (2004).
